“And” between values parts separate entries of the source, which are not always exact repeats. Equal values may be shown once. Inconclusive results and toxic doses are left out. Rule as the data show it: active = T/C of 150% or more; inactive = T/C below 125%.
Tested on: L1210 leukemia ip in BDF1 mice, survival T/C
Test: NCI In Vivo Anticancer Drug Screen. Data for tumor model L1210 Leukemia (intraperitoneal) in B6D2F1 (BDF1) mice
Details: endpoint: mean survival time, higher = longer survival
Method in brief: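 Transplanted-tumor mice were given test agent; controls received vehicle only. Survival readings from the two groups were divided (treated over control).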

[1] = dose: 50.0 mg/kg/injection, schedule: Q01DX001 (ip), vehicle: saline
[2] = dose: 100.0 mg/kg/injection, schedule: Q01DX009 (ip), vehicle: Klucel (hydroxypropylcellulose) (HPC)
[3] = dose: 200.0 mg/kg/injection, schedule: Q01DX009 (ip), vehicle: Klucel (hydroxypropylcellulose) (HPC)
[4] = dose: 400.0 mg/kg/injection, schedule: Q01DX009 (ip), vehicle: Klucel (hydroxypropylcellulose) (HPC)
[5] = dose: 100.0 mg/kg/injection, schedule: Q01DX001 (ip), vehicle: saline
[6] = dose: 200.0 mg/kg/injection, schedule: Q01DX001 (ip), vehicle: saline
[7] = dose: 100.0 mg/kg/injection, schedule: Q04DX003 (ip), vehicle: saline
[8] = dose: 200.0 mg/kg/injection, schedule: Q04DX003 (ip), vehicle: saline
[9] = dose: 100.0 mg/kg/injection, schedule: Q04DX003 (ip), vehicle: saline with Tween-80
[10] = dose: 200.0 mg/kg/injection, schedule: Q04DX003 (ip), vehicle: saline with Tween-80
[11] = dose: 400.0 mg/kg/injection, schedule: Q04DX003 (ip), vehicle: saline with Tween-80
[12] = dose: 100.0 mg/kg/injection, schedule: Q04DX003 (ip), vehicle: Klucel (hydroxypropylcellulose) (HPC)
[13] = dose: 200.0 mg/kg/injection, schedule: Q04DX003 (ip), vehicle: Klucel (hydroxypropylcellulose) (HPC)
[14] = dose: 400.0 mg/kg/injection, schedule: Q04DX003 (ip), vehicle: Klucel (hydroxypropylcellulose) (HPC)
[15] = dose: 100.0 mg/kg/injection, schedule: Q01DX001 (ip), vehicle: saline with Tween-80
[16] = dose: 200.0 mg/kg/injection, schedule: Q01DX001 (ip), vehicle: saline with Tween-80
[17] = dose: 400.0 mg/kg/injection, schedule: Q01DX001 (ip), vehicle: saline with Tween-80

Measured: T/C

CC1=C(N)C(=O)C2=C(C1=O)N1CC3C(N3C)C1(O)C2COC(N)=O (stereo not given)
inactive: dose: 15.0 mg/kg/injection, schedule: Q01DX001 (ip), vehicle: acetone 111 % of control | dose: 23.0 mg/kg/injection, schedule: Q01DX001 (ip), vehicle: acetone 109 % of control | dose: 35.0 mg/kg/injection, schedule: Q01DX001 (ip), vehicle: saline 111 % of control | dose: 50.0 mg/kg/injection, schedule: Q01DX001 (ip), vehicle: acetone 108 % of control | [1] 118 % of control

C=CCCOC(C)=O
inactive: dose: 75.0 mg/kg/injection, schedule: Q04DX003 (ip), vehicle: saline 96 % of control | [2] 107 % of control | dose: 150.0 mg/kg/injection, schedule: Q04DX003 (ip), vehicle: saline 100 % of control | [3] 97 % of control | dose: 300.0 mg/kg/injection, schedule: Q04DX003 (ip), vehicle: saline 100 % of control | [4] 100 % of control

CCOC(=O)CC(=O)O
inactive: [5] 91 % of control | [6] 97 % of control | dose: 400.0 mg/kg/injection, schedule: Q01DX001 (ip), vehicle: saline 91 % of control

O=c1[nH]c(=O)n2ncnc2[nH]1
inactive: [7] 100 % of control | [8] 100 % of control | dose: 400.0 mg/kg/injection, schedule: Q04DX003 (ip), vehicle: saline 96 % of control

COC(=O)N/N=C/c1ccccc1Cl
inactive: [2] 108 % of control | dose: 100.0 mg/kg/injection, schedule: Q04DX002 (ip), vehicle: Klucel (hydroxypropylcellulose) (HPC) 93 % of control | [3] 121 % of control | dose: 200.0 mg/kg/injection, schedule: Q04DX002 (ip), vehicle: Klucel (hydroxypropylcellulose) (HPC) 104 % of control | dose: 400.0 mg/kg/injection, schedule: Q04DX002 (ip), vehicle: Klucel (hydroxypropylcellulose) (HPC) 96 % of control

C=C(C)COc1c(CCC)cc(C)cc1NC(C)=O
inactive: [9] 106 % of control | [10] 97 % of control | [11] 104 % of control

O=S1(=O)C(c2ccccc2)=Cc2cccn2-c2ccccc21
inactive: [12] 95 % of control | [13] 104 % of control | [14] 98 % of control

C=C(C)c1c2c(Sc3ccc(C(C)(C)C)cc3)cccc2cc2cccc(Sc3ccc(C(C)(C)C)cc3)c12
inactive: [9] 98 % of control | [10] 93 % of control | [11] 91 % of control

COc1cc(OC)c(OC)cc1CNC1CCCCCCC1
inactive: dose: 25.0 mg/kg/injection, schedule: Q04DX002 (ip), vehicle: saline 102 % of control | dose: 50.0 mg/kg/injection, schedule: Q04DX002 (ip), vehicle: saline 91 % of control | dose: 100.0 mg/kg/injection, schedule: Q04DX002 (ip), vehicle: saline 105 % of control and 115 % of control

O=C(Nc1cc([N+](=O)[O-])ccc1F)Oc1ccc2ccccc2c1
inactive: dose: 100.0 mg/kg/injection, schedule: Q01DX009 (ip), vehicle: saline 111 % of control | dose: 200.0 mg/kg/injection, schedule: Q01DX009 (ip), vehicle: saline 95 % of control | dose: 400.0 mg/kg/injection, schedule: Q01DX009 (ip), vehicle: saline 106 % of control

Cc1nc2nc(=S)[nH]c(N)c2nc1C
inactive: dose: 16.0 mg/kg/injection, schedule: Q01DX Z (ip), vehicle: methylcellulose (MC) 86 % of control | dose: 31.0 mg/kg/injection, schedule: Q01DX Z (ip), vehicle: methylcellulose (MC) 91 % of control | dose: 62.0 mg/kg/injection, schedule: Q01DX Z (ip), vehicle: methylcellulose (MC) 88 % of control | dose: 125.0 mg/kg/injection, schedule: Q01DX Z (ip), vehicle: methylcellulose (MC) 95 % of control

NN1C(=O)c2c(Cl)c(Cl)c(Cl)c(Cl)c2C1=O
inactive: [15] 87 % of control | [16] 87 % of control | [17] 93 % of control

O=C1OC(OC(=O)c2ccccc2)C(Nc2ccccc2)=C1Br (stereo not given)
inactive: [9] 91 % of control | [10] 87 % of control | [11] 94 % of control

COCc1ccc(C(=O)Nc2c(N)ncnc2N)cc1
inactive: [15] 100 % of control | [16] 102 % of control | [17] 95 % of control

CCOC(=O)CCCc1ccc(N=NN(C)CC(C)C)cc1
inactive: dose: 100.0 mg/kg/injection, schedule: Q01DX001 (ip), vehicle: carboxymethylcellulose (CMC) 107 % of control | dose: 100.0 mg/kg/injection, schedule: Q01DX009 (ip), vehicle: carboxymethylcellulose (CMC) 116 % of control | dose: 200.0 mg/kg/injection, schedule: Q01DX001 (ip), vehicle: carboxymethylcellulose (CMC) 102 % of control | dose: 200.0 mg/kg/injection, schedule: Q01DX009 (ip), vehicle: carboxymethylcellulose (CMC) 107 % of control | dose: 400.0 mg/kg/injection, schedule: Q01DX001 (ip), vehicle: carboxymethylcellulose (CMC) 113 % of control

CC(=O)Nc1ccc(/C=N\NC(=O)Nc2ccccc2)cc1
inactive: [2] 90 % of control | [3] 90 % of control | [4] 91 % of control

O=C(C[n+]1cccc(C(=O)Nc2ccccc2)c1)Nc1ccc(Cl)cc1
inactive: dose: 50.0 mg/kg/injection, schedule: Q04DX003 (ip), vehicle: saline 98 % of control | [5] 96 % of control | [7] 102 % of control | [6] 89 % of control | [8] 98 % of control

Cc1cc(N)c2cc(NC(=O)CCCCCCCCC(=O)Nc3ccc4nc(C)cc(N)c4c3)ccc2n1
inactive: dose: 8.9 mg/kg/injection, schedule: Q01DX Z (ip), vehicle: saline 103 % of control and 114 % of control | dose: 12.0 mg/kg/injection, schedule: Q01DX Z (ip), vehicle: methylcellulose (MC) 96 % of control | dose: 12.0 mg/kg/injection, schedule: Q01DX Z (ip), vehicle: saline 121 % of control | dose: 13.3 mg/kg/injection, schedule: Q01DX Z (ip), vehicle: carboxymethylcellulose (CMC) 114 % of control | dose: 13.3 mg/kg/injection, schedule: Q01DX Z (ip), vehicle: saline 111 % of control | dose: 18.0 mg/kg/injection, schedule: Q01DX Z (ip), vehicle: methylcellulose (MC) 100 % of control | dose: 18.0 mg/kg/injection, schedule: Q01DX Z (ip), vehicle: saline 119 % of control | dose: 20.0 mg/kg/injection, schedule: Q01DX Z (ip), vehicle: carboxymethylcellulose (CMC) 112 % of control | dose: 20.0 mg/kg/injection, schedule: Q01DX Z (ip), vehicle: saline 114 % of control and 122 % of control | dose: 27.0 mg/kg/injection, schedule: Q01DX Z (ip), vehicle: methylcellulose (MC) 96 % of control | dose: 27.0 mg/kg/injection, schedule: Q01DX Z (ip), vehicle: saline 123 % of control | dose: 30.0 mg/kg/injection, schedule: Q01DX Z (ip), vehicle: carboxymethylcellulose (CMC) 108 % of control | dose: 30.0 mg/kg/injection, schedule: Q01DX Z (ip), vehicle: saline 115 % of control | dose: 40.0 mg/kg/injection, schedule: Q01DX Z (ip), vehicle: methylcellulose (MC) 96 % of control | dose: 40.0 mg/kg/injection, schedule: Q01DX Z (ip), vehicle: saline 121 % of control | [1] 106 % of control | dose: 90.0 mg/kg/injection, schedule: Q01DX Z (ip), vehicle: methylcellulose (MC) 107 % of control | dose: 90.0 mg/kg/injection, schedule: Q01DX Z (ip), vehicle: saline 113 % of control and 121 % of control and 86 % of control | [5] 120 % of control | dose: 100.0 mg/kg/injection, schedule: Q04DX003 (ip), vehicle: carboxymethylcellulose (CMC) 121 % of control | dose: 135.0 mg/kg/injection, schedule: Q01DX Z (ip), vehicle: methylcellulose (MC) 93 % of control | [6] 112 % of control | dose: 200.0 mg/kg/injection, schedule: Q04DX003 (ip), vehicle: carboxymethylcellulose (CMC) 117 % of control | dose: 400.0 mg/kg/injection, schedule: Q04DX003 (ip), vehicle: carboxymethylcellulose (CMC) 116 % of control

O=C1CC(c2ccccc2)C1(c1ccccc1)c1ccccc1 (stereo not given)
inactive: [12] 98 % of control | [13] 101 % of control | [14] 96 % of control

Reference: PubChem BioAssay AID248 (DTP/NCI, 2004)
